Assay results from the SangsterLogP compilation.

experiment: method code SF-HPLC, from DOI: 10.1002/jps.2600840914, PMID: 8537890

| Compound | logP |
| --- | --- |
| CCCc1cc(=S)ss1 | 2.83 |
| S=c1sscc1-c1ccccc1 | 3.2 |
| CCCCc1cssc1=S | 3.7 |
| CCc1cc(=S)ss1 | 2.31 |
| Cc1cssc1=O | 1.33 |
| Cc1ccc(-c2cc(=S)ss2)cc1 | 4.26 |
| CCCc1cssc1=O | 2.38 |
| CCCc1cc(=O)ss1 | 2.24 |
| S=c1ccss1 | 1.58 |
| CCCCCc1cssc1=S | 4.06 |
| Cc1ccc(-c2cssc2=S)cc1 | 3.73 |
| CCCc1cssc1=S | 3.18 |
| Cc1cc(=O)ss1 | 1.26 |
| Cc1ssc(=O)c1C | 1.73 |
| COc1ccc(-c2ssc(=S)c2C)cc1 | 4.1 |
| CCc1cc(=O)ss1 | 1.69 |
| S=c1cc(Cc2ccccc2)ss1 | 3.43 |
| S=c1cc(-c2ccccc2)ss1 | 3.67 |
| COc1ccc(-c2cc(=S)ss2)cc1 | 3.82 |

More lines, now with the values ahead:

| logP | Compound |
| --- | --- |
| 3.42 | CCCc1ssc(=S)c1C |
| 2.45 | Cc1ssc(=S)c1C |
| 3.27 | S=c1ssc2c1CCCCC2 |
| 3.95 | Cc1c(-c2ccccc2)ssc1=S |
| 3.52 | CCc1ssc(=S)c1-c1ccccc1 |
| 3.76 | CCCc1ssc(=S)c1CC |
| 2.67 | CCc1cssc1=S |
| 3.57 | S=c1ssc2ccccc12 |
| 3.17 | Cc1ssc(=S)c1-c1ccccc1 |
| 3.75 | S=c1ssc2c1CCCCCC2 |
| 2.95 | CCc1ssc(=S)c1C |
| 2.18 | Cc1cssc1=S |
| 3.51 | CCc1ssc(=S)c1CC |
| 3.78 | Cc1ssc(=S)c1Cc1ccccc1 |
| 3.39 | CCCc1c(C)ssc1=S |
| 1.87 | Cc1cc(=S)ss1 |
| 2.53 | S=c1ssc2c1CCC2 |
| 2.94 | CCc1c(C)ssc1=S |
